Experiment [1] deals with Helicobacter pylori. In words: Antimicrobial activity against Helicobacter pylori clinical isolate by Etest. It is filed as functional, organism-based.
Experiment [2] concerns Helicobacter pylori. Put plainly: Antimicrobial activity against Helicobacter pylori clinical isolate expressing 23S rRNA A2142G mutant by Etest. The experiment is classed as functional.
For experiment [3], the system named is Helicobacter pylori. Put plainly: Antimicrobial activity against Helicobacter pylori clinical isolate expressing 23S rRNA A2143G mutant by Etest. It is filed as functional, organism-based.

Experimental findings from ChEMBL document CHEMBL1649575, “Antimicrobial susceptibility and mutations involved in clarithromycin resistance in Helicobacter pylori isolates from patients in the western central region of Colombia” (2009) are described below.

Active and inactive are the calls of the source. No cut-off for these calls is given here.

Regarding `CN(C)[C@@H]1C(O)=C(C(N)=O)C(=O)[C@@]2(O)C(O)=C3C(=O)c4c(O)cccc4[C@@](C)(O)[C@H]3C[C@@H]12`, the result in the experiment on Helicobacter pylori [1] was Active.
For orientation: MIC means the lowest concentration found to suppress growth. Take `CC[C@H]1OC(=O)[C@H](C)[C@@H](O[C@H]2C[C@@](C)(OC)[C@@H](O)[C@H](C)O2)[C@H](C)[C@@H](O[C@@H]2O[C@H](C)C[C@H](N(C)C)[C@H]2O)[C@](C)(OC)C[C@@H](C)C(=O)[C@H](C)[C@@H](O)[C@]1(C)O` [CLARITHROMYCIN]: the MIC with Helicobacter pylori [2] was above 256 µg/mL. For the same compound, the result with Helicobacter pylori [3] was inactive.
